Laboratory results published in patent US20170334899A1, “AMINO-SUBSTITUTED ISOTHIAZOLES” (Bayer Pharma Aktiengesellschaft, priority 2014, published 2017).
Where a name gives a salt, the structure may show the parent alone.

Molecular target: T1, catalytic domain of human Bub1 (amino acids 704-1085) (Homo sapiens, UniProt O43683)
T1 construct: catalytic domain of human Bub1 (amino acids 704-1085); His6 (N); made in house; host or cells: insect cells (Hi5)
Assay: Bub1 kinase assay (TR-FRET)
Format: biochemical
Conditions: 10 μM ATP, avg, read-out: Bub1 avg (IC50 [mol/l])
From the text: Bub1-inhibitory activity of compounds of the present invention was quantified employing the Bub1 TR-FRET assay as described in the following paragraphs.
N-terminally His6-tagged recombinant catalytic domain of human Bub1 (amino acids 704-1085), expressed in insect cells (Hi5) and purified by Ni-NTA affinity chromatography and subsequent size exclusion chromatography, was used as enzyme. As substrate for the kinase reaction the biotinylated peptide biotin-Ahx-VLLPKKSFAEPG (C-terminus in amid form) was used which can be purchased e.g. form the company Biosyntan (Berlin, Germany).
For the assay 50 nl of a 100fold concentrated solution of the test compound in DMSO was pipetted into a black low volume 384well microtiter plate (Greiner Bio-One, Frickenhausen, Germany), 2 μl of a solution of Bub1 in aqueous assay buffer [50 mM Tris/HCl pH 7.5, 10 mM magnesium chloride (MgCl2), 200 mM potassium chloride (KCl), 1.0 mM dithiothreitol (DTT), 0.1 mM sodium ortho-vanadate, 1% (v/v) glycerol, 0.01% (w/v) bovine serum albumine (BSA), 0.005% (v/v) Trition X-100 (Sigma), 1× Complete EDTA-free protease inhibitor mixture (Roche)] were added and the mixture was incubated for 15 min at 22° C. to allow pre-binding of the test compounds to the enzyme before the start of the kinase reaction. Then the kinase reaction was started by the addition of 3 μl of a solution of adenosine-tri-phosphate (ATP, 16.7 μM=>final conc. in the 5 μl assay volume is 10 μM) and substrate (1.67 μM=>final conc. in the 5 μl assay volume is 1 μM) in assay buffer and the resulting mixture was incubated for a reaction time of 60 min at 22° C. The concentration of Bub1 was adjusted depending of the activity of the enzyme lot and was chosen appropriate to have the assay in the linear range, typical concentrations were in the range of 200 ng/ml. The reaction was stopped by the addition of 5 μl of a solution of TR-FRET detection reagents (0.2 μM streptavidine-XL665 [Cisbio Bioassays, Codolet, France] and 1 nM anti-phosho-Serine antibody [Merck Millipore, cat. #35-001] and 0.4 nM LANCE EU-W1024 labeled anti-mouse IgG antibody [Perkin-Elmer, product no. AD0077, as an alternative a Terbium-cryptate-labeled anti-mouse IgG antibody from Cisbio Bioassays can be used]) in an aqueous EDTA-solution (50 mM EDTA, 0.2% (w/v) bovine serum albumin in 100 mM HEPES pH 7.5).
The resulting mixture was incubated 1 h at 22° C. to allow the formation of complex between the phosphorylated biotinylated peptide and the detection reagents. Subsequently the amount of phosphorylated substrate was evaluated by measurement of the resonance energy transfer from the Eu-chelate to the streptavidine-XL. Therefore, the fluorescence emissions at 620 nm and 665 nm after excitation at 350 nm was measured in a TR-FRET reader, e.g. a Rubystar or Pherastar (both from BMG Labtechnologies, Offenburg, Germany) or a Viewlux (Perkin-Elmer). The ratio of the emissions at 665 nm and at […] was taken as the measure for the amount of phosphorylated substrate. The data were normalised (enzyme reaction without inhibitor=0% inhibition, all other assay components but no enzyme=100% inhibition).

T1 sequence (O43683 704-1085): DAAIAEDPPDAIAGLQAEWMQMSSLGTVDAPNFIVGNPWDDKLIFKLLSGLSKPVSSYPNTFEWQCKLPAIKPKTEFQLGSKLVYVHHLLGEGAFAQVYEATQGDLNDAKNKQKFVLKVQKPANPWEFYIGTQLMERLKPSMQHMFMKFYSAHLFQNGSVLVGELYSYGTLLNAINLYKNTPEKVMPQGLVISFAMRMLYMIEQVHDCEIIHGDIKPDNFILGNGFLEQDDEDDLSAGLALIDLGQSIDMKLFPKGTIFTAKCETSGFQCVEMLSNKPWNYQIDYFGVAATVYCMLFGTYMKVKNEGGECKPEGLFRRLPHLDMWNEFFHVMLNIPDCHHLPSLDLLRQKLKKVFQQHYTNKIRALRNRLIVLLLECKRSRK

SMILES	IC50 [µM]
Cc1nsc(Nc2cnc(C(F)(F)F)cn2)c1C(=O)Nc1ccc(OC2CCN(C(C)C)CC2)nc1 [Example 160, N-{6-[(1-isopropylpiperidin-4-yl)oxy]pyridin-3-yl}-3-methyl-5-{[5-(trifluoromethyl)pyrazin-2-yl]amino}-1,2-thiazole-4-carboxamide]	> 20
Cc1nsc(Nc2cnc(C(F)(F)F)cn2)c1C(=O)Nc1ccc(OC[C@@H]2CCCN(CCC(F)(F)F)C2)nc1 [Example 422, 3-Methyl-5-{[5-(trifluoromethyl)pyrazin-2-yl]amino}-N-(6-{[(3R)-1-(3,3,3-trifluoropropyl)piperidin-3-yl]methoxy}pyridin-3-yl)-1,2-thiazole-4-carboxamide]	≥ 20
Cc1nsc(Nc2cncc(C(F)(F)F)n2)c1C(=O)Nc1ccc(C(=O)NC2CCN(CC(F)(F)F)CC2)cc1 [Example 167, 3-methyl-N-(4-{[1-(2,2,2-trifluoroethyl)piperidin-4-yl]carbamoyl}phenyl)-5-{[6-(trifluoromethyl)pyrazin-2-yl]amino}-1,2-thiazole-4-carboxamide]	> 20
Cc1nsc(Nc2cnc(C(F)(F)F)cn2)c1C(=O)Nc1ccc(OC[C@@H]2CCN(CCC(F)(F)F)C2)nc1 [Example 129, 3-Methyl-5-{[5-(trifluoromethyl)pyrazin-2-yl]amino}-N-(6-{[(3R)-1-(3,3,3-trifluoropropyl)pyrrolidin-3-yl]methoxy}pyridin-3-yl)-1,2-thiazole-4-carboxamide]	> 20
Cc1nsc(Nc2cnc(C(F)(F)F)cn2)c1C(=O)Nc1ccc(O[C@H]2CCN(CC(F)F)C[C@H]2F)nc1 [Example 144, N-(6-{[(3R,4S)-1-(2,2-difluoroethyl)-3-fluoropiperidin-4-yl]oxy}pyridin-3-yl)-3-methyl-5-{[5-(trifluoromethyl)pyrazin-2-yl]amino}-1,2-thiazole-4-carboxamide]	> 20
Cc1nsc(Nc2cnc3ccccc3n2)c1C(=O)Nc1ccc(C(=O)NC2CN(C(=O)OC(C)(C)C)CC(F)(F)C2)cc1 (stereo not drawn) [Example 158, tert-butyl 3,3-difluoro-5-{[4-({[3-methyl-5-(quinoxalin-2-ylamino)-1,2-thiazol-4-yl]carbonyl}amino)benzoyl]amino} piperidine-1-carboxylate]	> 20
Cc1nsc(Nc2cncc(C(F)(F)F)n2)c1C(=O)Nc1ccc(OCC2CCCN(C(=O)OC(C)(C)C)C2)nc1 (stereo not drawn) [Example 166, tert-butyl 3-{[(5-{[(3-methyl-5-{[6-(trifluoromethyl)pyrazin-2-yl]amino}-1,2-thiazol-4-yl)carbonyl]amino}pyridin-2-yl)oxy]methyl}piperidine-1-carboxylate]	> 20
Cc1nsc(Nc2cnc(C(F)(F)F)cn2)c1C(=O)Nc1ccc(O[C@@H]2CCN(CC(F)F)C[C@@H]2F)nc1 [Example 137, N-(6-{[(3S,4R)-1-(2,2-difluoroethyl)-3-fluoropiperidin-4-yl]oxy}pyridin-3-yl)-3-methyl-5-{[5-(trifluoromethyl)pyrazin-2-yl]amino}-1,2-thiazole-4-carboxamide]	> 20
Cc1nsc(Nc2cnc3ccccc3n2)c1C(=O)Nc1cccc(C(=O)N[C@H](C(=O)O)[C@@H](C)OC(C)(C)C)c1 [Example 104, O-tert-Butyl-N-[3-({[3-methyl-5-(quinoxalin-2-ylamino)-1,2-thiazol-4-yl]-carbonyl}amino)benzoyl]threonine]	≥ 20
Cc1nsc(Nc2cnc(C(F)(F)F)cn2)c1C(=O)Nc1ccc(OC2CCN(CCC(F)(F)F)CC2)nc1 [Example 426, 3-Methyl-5-{[5-(trifluoromethyl)pyrazin-2-yl]amino}-N-(6-{[1-(3,3,3-trifluoro-propyl)piperidin-4-yl]oxy}pyridin-3-yl)-1,2-thiazole-4-carboxamide, Salt with Hydrochloric Acid]	≥ 20
CCCCN1CC[C@H](Oc2ccc(NC(=O)c3c(C)nsc3Nc3cnc(C(F)(F)F)cn3)cn2)[C@H](F)C1 [Example 148, N-(6-{[(3R,4S)-1-butyl-3-fluoropiperidin-4-yl]oxy}pyridin-3-yl)-3-methyl-5-{[5-(trifluoromethyl)pyrazin-2-yl]amino}-1,2-thiazole-4-carboxamide]	> 20

Further lines, results first:

IC50 [µM]	SMILES
≥ 20	Cc1nsc(Nc2cc(C#N)ccn2)c1C(=O)Nc1ccc(Oc2cccnc2)nc1 [Example 119, 5-[(4-Cyanopyridin-2-yl)amino]-3-methyl-N-[6-(pyridin-3-yloxy)pyridin-3-yl]-1,2-thiazole-4-carboxamide]
4.3	Cc1nsc(Nc2cnc(C(F)(F)F)cn2)c1C(=O)Nc1ccc(F)c(C(N)=O)c1 [Example 151, N-(3-carbamoyl-4-fluorophenyl)-3-methyl-5-{[5-(trifluoromethyl)pyrazin-2-yl]amino}-1,2-thiazole-4-carboxamide]
2.9	Cc1nsc(Nc2cnc(C(F)(F)F)cn2)c1C(=O)Nc1ccc(C(=O)O)cc1 [Example 97, 4-{[(3-Methyl-5-{[5-(trifluoromethyl)pyrazin-2-yl]amino}-1,2-thiazol-4-yl)carbony]-amino}benzoic acid]
≥ 20	CNS(=O)(=O)c1ccc(NC(=O)c2c(C)nsc2Nc2cnc3ccccc3n2)cc1 [Example 111, 3-Methyl-N-[4-(methylsulfannoyl)phenyl]-5-(quinoxalin-2-ylamino)-1,2-thiazole-4-carboxamide]
19	Cc1nsc(Nc2cnc3ccccc3n2)c1C(=O)Nc1cccc(C(=O)N[C@H](C(=O)O)[C@@H](C)O)c1 [Example 105, N-[3-({[3-methyl-5-(quinoxalin-2-ylamino)-1,2-thiazol-4-yl]carbonyl}amino)-benzoyl]threonine]
≥ 20	Cc1nsc(Nc2cnc(C(F)(F)F)cn2)c1C(=O)Nc1ccc(O[C@@H]2CCN(CC(F)(F)F)C2)nc1 [Example 421, 3-Methyl-N-(6-{[(3R)-1-(2,2,2-trifluoroethyl)pyrrolidin-3-yl]oxy}pyridin-3-yl)-5-{[5-(trifluoromethyl)pyrazin-2-yl]amino}-1,2-thiazole-4-carboxamide]
8.9	Cc1nsc(Nc2cnc3ccccc3n2)c1C(=O)Nc1ccc(S(C)(=O)=O)cc1 [Example 115, 3-Methyl-N-[4-(methylsulfonyl)phenyl]-5-(quinoxalin-2-ylamino)-1,2-thiazole-4-carboxamide]
≥ 20	Cc1nsc(Nc2cnc(C(F)(F)F)cn2)c1C(=O)Nc1ccc(OCC2CCN(CC(F)F)C2)nc1 (stereo not drawn) [Example 122, N-(6-{[1-(2,2-difluoroethyl)pyrrolidin-3-yl]methoxy}pyridin-3-yl)-3-methyl-5-{[5-(trifluoromethyl)pyrazin-2-yl]amino}-1,2-thiazole-4-carboxamide]
≥ 20	CC(=O)N1CCC(Oc2ccc(NC(=O)c3c(C)nsc3Nc3cnc(C(F)(F)F)cn3)cn2)CC1 [Example 11, N-{6-[(1-Acetylpiperidin-4-yl)oxy]pyridin-3-yl}-3-methyl-5-{[5-(trifluoromethyl)-pyrazin-2-yl]amino}-1,2-thiazole-4-carboxamide]
≥ 20	CCNS(=O)(=O)c1ccc(NC(=O)c2c(C)nsc2Nc2cnc3ccccc3n2)cc1 [Example 116, N-[4-(Ethylsulfamoyl)phenyl]-3-methyl-5-(quinoxalin-2-ylamino)-1,2-thiazole-4-carboxamide]
